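Each compound was tested at five concentrations against cells in 96-well plates for 48 hours. The concentration for full growth arrest is given as TGI.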
Columns and labels:
Test in all cases: NCI tumour cell line growth inhibition, 48 h
HCC-2998 colon = tested on: HCC-2998 colon
ACHN renal = tested on: ACHN renal
MDA-MB-231 breast = tested on: MDA-MB-231 breast
NCI-H226 lung = tested on: NCI-H226 lung
786-0 renal = tested on: 786-0 renal
UACC-257 melanoma = tested on: UACC-257 melanoma
OVCAR-4 ovarian = tested on: OVCAR-4 ovarian
SK-MEL-2 melanoma = tested on: SK-MEL-2 melanoma
MCF7 breast = tested on: MCF7 breast
OVCAR-3 ovarian = tested on: OVCAR-3 ovarian
A549 NSCLC = tested on: A549 NSCLC

Row | Structure (SMILES) | TGI (HCC-2998 colon) | TGI (ACHN renal) | TGI (MDA-MB-231 breast) | TGI (NCI-H226 lung) | TGI (786-0 renal) | TGI (UACC-257 melanoma) | TGI (OVCAR-4 ovarian) | TGI (SK-MEL-2 melanoma) | TGI (MCF7 breast) | TGI (OVCAR-3 ovarian) | TGI (A549 NSCLC)
1 | COc1cc(/C=C/C(=O)C2(C(=O)/C=C/c3cc(OC)c(OC)c(OC)c3)CCCCC2)cc(OC)c1OC | > 100 µM | > 100 µM | > 100 µM | > 100 µM | > 100 µM | > 100 µM | > 100 µM | > 100 µM | > 100 µM | 58.4 µM | > 100 µM
2 | N#Cc1ccc(-n2c3ccccc3c3ccc4c(c32)C(=O)C=CC4=O)cc1 | 18.3 µM | 3.01 µM | 8.25 µM | > 74.5 µM | 3.16 µM | 13.9 µM | 13 µM | 28.9 µM | 8.04 µM | 11.1 µM | 38.4 µM
3 | O=C1C(c2c(O)[nH]c3ccc(Br)cc23)=Nc2ccccc21 | 13.5 µM | 12.2 µM | 37.2 µM | 34.3 µM | 5.75 µM | 57.3 µM | 29.8 µM | 28.3 µM | 3.72 µM | 45.8 µM | 17.3 µM
4 | C/C(=N\NC(=S)NCCCNC(=S)N/N=C(\C)c1ccccn1)c1ccccn1 | > 59.1 µM | 16.6 µM | > 49.9 µM | > 29.6 µM | 6.07 µM | 29 µM | > 54 µM | > 50.9 µM | > 50.6 µM | 20.7 µM | > 49.8 µM
5 | CCOC(=O)CCC(NC(=O)c1ccc(OCc2ccc3nc(-c4ccccc4)c(Cl)nc3c2)cc1)C(=O)OCC (configuration not stated) | > 31.6 µM | > 31.6 µM | > 67.9 µM | 68.8 µM | > 31.6 µM | > 31.6 µM | > 31.6 µM | > 100 µM | > 31.6 µM | > 31.6 µM | > 100 µM
6 | CC(C)(C)c1cc(O)ccc1O | > 17.6 µM | > 100 µM | 4.97 µM | > 100 µM | > 67 µM | > 21.7 µM | > 71.5 µM | 3.18 µM | > 100 µM | > 70 µM | > 100 µM
7 | CC(=O)c1cc2ccccc2oc1=O | > 100 µM | > 100 µM | > 100 µM | > 100 µM | > 100 µM | > 100 µM | > 100 µM | > 100 µM | > 100 µM | > 100 µM | > 100 µM
8 | CCOC(=O)C(SCCO)C(C(=O)OCC)n1ccc(=O)[nH]c1=O (configuration not stated) | > 100 µM | > 66.6 µM | > 82.2 µM | > 61.2 µM | > 50.6 µM | > 100 µM | > 86.5 µM | > 79.8 µM | > 62.1 µM | 72.7 µM | > 100 µM
9 | Nn1c(Cc2ccc([N+](=O)[O-])cc2)n[nH]c1=O | > 100 µM | > 100 µM | > 100 µM | > 100 µM | > 100 µM | > 100 µM | > 100 µM | > 100 µM | > 100 µM | > 100 µM | > 100 µM
10 | COc1cc(Cc2nccc3cc(OC)c(OC)cc23)c(N=NN(C)C)cc1OC | 28.9 µM | > 100 µM | 36.6 µM | 60 µM | 18.6 µM | 44.9 µM | 70.7 µM | 70.2 µM | 37.3 µM | 73.9 µM | 77.2 µM
11 | CCCCCCCCCCNC(=O)CCC(NC(=O)c1ccc(N(C)Cc2cnc3nc(N)nc(N)c3n2)cc1)C(=O)NCCCCCCCCCC (configuration not stated) | 48.6 µM | > 100 µM | 11.3 µM | 59.3 µM | 13.5 µM | > 60.1 µM | > 45.4 µM | 30.4 µM | 15.3 µM | 26.8 µM | > 100 µM
12 | Cc1cc(S(=O)(=O)Nc2nc3ccccc3c(=O)n2N)c(S)cc1Cl | > 100 µM | > 100 µM | > 100 µM | 67.1 µM | 81.6 µM | > 100 µM | > 100 µM | > 100 µM | > 100 µM | > 100 µM | > 100 µM

From PubChem BioAssay (NCI)
